28 molecules from patent publication US20060063784A1, “Method of using substituted pyrazolo [1,5-a] pyrimidines” (priority 2004, published 2006) can be followed below.

The first assay relates to 80S14 (p21-deficient) cells. Nature of the assay: Cytotoxicity assay using isogenic cell lines: IC50 in 80S14 (p21-deficient) cells, SRB. In kind it is cell-based, human. Conditions: 80S14 p21-deficient cells, 5 days incubation, SRB; read-out: IC50 for 80SI4. As to the method:
Cytotoxicity Assay Using Isogenic Cell Lines: • 1. 80S14 (p21-deficient) cells were cultured in RPMI 1640 medium (Gibco/Invitrogen Life technologies) supplemented with 10% fetal bovine serum (FBS, Gibco) and 10 μg/ml gentamycin (Gibco). Cells were maintained at 37° C. under 7% CO2 • 2. Cells were plated at 6×10^4/ml (0.2 ml/well; 12,000 cells/well) in 96-well microtiter plates (Falcon or Corning/Costar) and incubated at 37° C. overnight (18-24 hours). • 3. 2-5 μl of the test agent [200 μg/ml stock in 20% DMSO/20 mM HEPES, pH 7.5 (Gibco)] was added to each well to achieve a final concentration of 2-5 μg/ml. Cells were incubated with the test compounds for 5 days at 37° C. • 4. Surviving cells were fixed with 50 μl 50% trichloroacetic acid (Sigma; 10% final concentration) for 1 hour at 4° C. • 5. Plates were rinsed twice with water (0.3 ml per wash using MRD8 robot), and allowed to dry. • 6. Sulforhodamine B (SRB) (Sigma; 0.4% in 1% acetic acid, 50 μl per well; MRD8 robot) was added and plates kept at room temperature for 10 minutes. • 7. Excess dye was removed by washing with 1% acetic acid (3 times, 0.3 ml per wash; MRD8 robot) and allowed to dry. • 8. The dye was solubilized in Tris base (Sigma; 10 mM, 150 μl per well). Plates were kept at room temperature for 30 minutes to allow the dye to diffuse. • 9. Absorbance was measured at 540 nm. • 10. The percentage of cells surviving drug treatment relative to control wells (no drug) was determined. • 11. The difference in % cell survival between the two cell lines was calculated. • 12. Compounds producing a difference score of >50 were considered to be selective for the p21-deficient cells and were evaluated further: Determination of selectivity of compounds for p21−/− cells: • 1. 80S14 cells were cultured as described above. • 2. Cells were seeded in 96-well microtiter plates at 12,000 cells/well (either 0.15 ml/well of 8×10^4 cells/ml suspension, or 0.2 ml/well of 6×10^4 cells/ml suspension). Plates were incubated at 37° C. overnight (18-24 hours). • 3. Serial dilutions of the test agent were added to each well. Dilutions were prepared either in 40% DMSO/20% methanol/20 mM HEPES, pH 7.5 (Gibco) or directly in growth medium. One of two dose ranges were used: 5 pM to 50 μM or 170 pg/ml to 10 μg/ml. Cells were incubated with the test compounds for 5 days at 37° C. • 4. Surviving cells were fixed with 50 μl 50% trichloroacetic acid (Sigma; 10% final concentration) for 1 hour at 4° C. • 5. Plates were rinsed extensively in water, and allowed to dry. • 6. Sulforhodamine B (Sigma; 0.4% in 1% acetic acid, 70 μl per well) was added and plates kept at room temperature for 10 minutes. • 7. Excess dye was removed by washing 5 times with 1% acetic acid and plates were allowed to dry. • 8. The dye was solubilized in Tris base (Sigma; 10 mM, 150 μl per well). Plates were placed on a titer plate shaker (Lab Line Instruments) for 5 minutes to allow the dye to diffuse. • 9. Absorbance was measured at 560 nm.
10. The drug concentration that inhibits cell proliferation by 50% relative to untreated controls (IC50) was determined from cytotoxicity curves.
What is called IC50 is the concentration at which inhibition is half-maximal. As for `NCC(=O)Nc1cccc(-c2ccnc3c(C(=O)c4cccs4)cnn23)c1` [Example 77, N-1-{3-[3-(thien-2-ylcarbonyl)pyrazolo[1,5-a]pyrimidin-7-yl]phenyl}gylcinamide], the IC50 was in the range of 10 to 50 µM.

As to `CCNC(=O)NCC(=O)Nc1cccc(-c2ccnc3c(C(=O)c4cccs4)cnn23)c1` [Example 137, N-2-[(ethylamino)carbonyl]-N-1-{3-[3-(thien-2-ylcarbonyl)pyrazolo[1,5-a]pyrimidin-7-yl]phenyl}glycinamide], the IC50 is 1 to 10 µM.

In the case of `CC(=O)OCC(=O)Nc1cccc(-c2ccnc3c(C(=O)c4cccs4)cnn23)c1` [Example 62, 2-oxo-2-({3-[3-(thien-2-ylcarbonyl)pyrazolo[1.5-a]pyrimidin-7-yl]phenyl]amino)ethyl acetate], the IC50 is 1 to 10 µM.

For the molecule `C/C=C/C(=O)Nc1cccc(-c2ccnc3c(C(=O)c4cccs4)cnn23)c1` [Example 149, (2E)-N-{3-[3-(thien-2-ylcarbonvl)pyrazolo[1,5-a]pyrimidin-7-yl]phenyl}but-2-enamide], the concentration for half-maximal inhibition (IC50) fell in the range of 1 to 10 µM.

The assay is the same for the next values; noted with them: Homo sapiens, 80S14, 120 h, read-out: IC50 for 80S14 (uM).
For `CC(C)OC(=O)Nc1cccc(-c2ccnc3c(C(=O)c4ccccc4)cnn23)c1` [Example 294, Isopropyl 3-(3-benzoylpyrazolo[1,5-a]pyrimidin-7-yl)phenylcarbamate], the IC50 is less than 1 µM.

Consider `CC(C)C(=O)Nc1cccc(-c2ccnc3c(C(=O)c4ccco4)cnn23)c1` [Example 241, N-[3-[3-(2-Furanylcarbonyl)pyrazolo-[1,5-a]pyrimidin-7-yl]phenyl}-2-methyl-propanamide], for which the IC50 was in the range of 1 to 10 µM.

For the molecule `CC(C)CC(=O)Nc1cccc(-c2ccnc3c(C(=O)C4CCCC4)cnn23)c1` [Example 296, N-{3-[3-(Cyclopentylcarbonyl)pyrazolo[1,5-a]pyrimidin-7-yl]phenyl}-3-methylbutanamide], the IC50 fell in the range of 1 to 10 µM.

The assay is the same for the next values; noted with them: Homo sapiens, 120 h; 80S14 (p21-deficient) cells, 5 days, SRB; class symbols; read-out: IC50 for 80S14.
In the case of `COc1ccc(-c2ccnc3c(C(=O)c4cccs4)cnn23)c(OC)c1` [Example 246, [7-(2,4-dimethoxyphenyl)pyrazolo[1,5-a]-pyrimidin-3-yl}-2-thienyl-methanone], the 50% inhibitory concentration (IC50) lay in the range of 10 to 50 µM.

Take `C#CCN(C(=O)C1CC1)c1cccc(-c2ccnc3c(C(=O)c4cccs4)cnn23)c1` [Example 259, N-2-Propynyl-N-[3-[3-(2-thienylcarbonyl)pyrazolo[1,5-a]pyrimidin-7-yl]phenyl}-cyclopropanecarboxamide]: the IC50 was in the range of 1 to 10 µM.

For `Cc1ccc(-c2ccnc3c(C(=O)c4cccs4)cnn23)cc1NC(=O)c1ccccc1` [Example 309, N-{2-Methyl-5-[3-(2-thienylcarbonyl)pyrazolo[1,5-a]pyrimidin-7-yl]phenyl}benzamide], the IC50 lay within 1 to 10 µM.

For `O=C(c1cccs1)c1cnn2c(-c3cccc(-n4cccc4)c3)ccnc12` [Example 270, [7-[3-(1H-Pyrrol-1-yl)phenyl]pyrazolo[1,5-a]pyrimidin-3-yl]-2-thienyl-methanone], the IC50 lay in the range of 1 to 10 µM.

Take `CC(CCNc1cccc(-c2ccnc3c(C(=O)c4cccs4)cnn23)c1)c1ccccc1` (stereo not shown) [Example 400, (7-{3-[(3-Phenylbutyl)amino]phenyl}pyrazolo[1,5-a]pyrimidin-3-yl)(thien-2-yl)methanone]: the IC50 lay within 1 to 10 µM.

Take `O=C(c1cccs1)c1cnn2c(-c3cccc(F)c3)ccnc12` [Example 225, [7-(3-Fluorophenyl)pyrazolo[1,5-a]-pyrimidin-3-yl}-2-thienyl-methanone]: the IC50 was in the range of 10 to 50 µM.

As for `CN(C)c1ccc(-c2ccnc3c(C(=O)c4cccs4)cnn23)cc1NC(=O)c1ccncc1` [Example 428, N-{2-(Dimethylamino)-5-[3-(thien-2-ylcarbonyl)pyrazolo[1,5-a]pyrimidin-7-yl]phenyl}isonicotinamide], the IC50 was in the range of 1 to 10 µM.

Regarding `COC(=O)c1cccc(-c2ccnc3c(C(=O)c4cccs4)cnn23)c1` [Example 306, Methyl 3-[3-(2-thienylcarbonyl)pyrazolo[1,5-a]pyrimidin-7-yl]benzoate], the IC50 fell in the range of 10 to 50 µM.

Turning to `O=C(c1cccs1)c1cnn2c(-c3cccc(NC(=S)Nc4cccc(-c5ccnc6c(C(=O)c7cccs7)cnn56)c4)c3)ccnc12` [Example 406, N,N′-bis {3-[3-(Thien-2-ylcarbonyl)pyrazolo[1,5-a]pyrimidin-7-yl]phenyl}thiourea], the IC50 lay in the range of 10 to 50 µM.

For `CCC(C)CNc1cccc(-c2ccnc3c(C(=O)c4cccs4)cnn23)c1` (stereo not shown) [Example 402, (7-{3-[(2-Methylbutyl)amino]phenyl}pyrazolo[1,5-a]pyrimidin-3-yl)(thien-2-yl)methanone], the IC50 lay in the range of 1 to 10 µM.

In the case of `O=C(Nc1cccc(-c2ccnc3c(C(=O)c4cccs4)cnn23)c1)c1cc(C(F)(F)F)ccc1C(F)(F)F` [Example 280, N-{3-[3-(2-Thienylcarbonyl)pyrazolo[1,5-a]pyrimidin-7-yl]phenyl}-2,5-bis(trifluoromethyl)benzamide], the half-inhibitory concentration (IC50) was in the range of 10 to 50 µM.

As to `CC(C)(C)c1ccc(C(=O)Nc2cccc(-c3ccnc4c(C(=O)c5cccs5)cnn34)c2)cc1` [Example 287, 4-(tert-butyl)-N-{3-[3-(2-thienylcarbonyl)pyrazolo[1,5-a]pyrimidin-7-yl]phenyl}benzamide], the IC50 was in the range of 10 to 50 µM.

`CC(C)CC(=O)Nc1cccc(-c2ccnc3c(-c4cccs4)cnn23)c1` [Example 333, 3-Methyl-N-[3-(3-thien-2-ylpyrazolo[1,5-a]pyrimidin-7-yl)phenyl]butanamide]: the IC50 lay in the range of 10 to 50 µM.

Staying with this assay, now noted: Homo sapiens, 120 h; 80S14 p21-deficient cells, 5 days incubation, SRB; read-out: IC50 for 80SI4.
Consider `CCC(CC)OC(=O)Nc1cccc(-c2ccnc3c(C(=O)c4cccs4)cnn23)c1` [Example 186, 1-ethylpropyl 3-[3-(thien-2-ylcarbonyl)pyrazolo[1,5-a]pyrimidin-7-yl]phenylcarbamate], for which the IC50 was less than 1 µM.

For `O=C(Cc1ccccc1)Nc1cccc(-c2ccnc3c(C(=O)c4cccs4)cnn23)c1` [Example 105, 2-phenyl-N-{3-[3-(thien-2-ylcarbonyl)pyrazolo[1,5-a]pyrimidin-7-yl]phenyl}acetamide], the IC50 is less than 1 µM.

With `O=C(Nc1cccc(-c2ccnc3c(C(=O)c4cccs4)cnn23)c1)c1cccc2ccccc12` [Example 103, N-{3-[3-(thien-2-ylcarbonyl)pyrazolo[1,5-a]pyrimidin-7-yl]phenyl}-1-naphthamide], the IC50 is less than 1 µM.

As for `CS(=O)(=O)Nc1cccc(-c2ccnc3c(C(=O)c4cccs4)cnn23)c1` [Example 27, N-{3-[3-(thien-2-ylcarbonyl)pyrazolo[1,5-a]pyrimidin-7-yl]phenyl} methanesulfonamide], the IC50 lay in the range of 1 to 10 µM.

In the case of `O=C(c1cccs1)c1cnn2c(-c3cccc(NS(=O)(=O)/C=C/c4ccccc4)c3)ccnc12` [Example 37, (E)-2-phenyl-N-{3-[3-(thien-2-ylcarbonyl)pyrazolo[1,5-a]pyrimidin-7-yl]phenyl}ethenesulfonamide], the IC50 fell in the range of 10 to 50 µM.

As to `C=CCCOC(=O)NCC(=O)Nc1cccc(-c2ccnc3c(C(=O)c4cccs4)cnn23)c1` [Example 118, but-3-enyl-2-oxo-2-({3-[3-(thien-2-ylcarbonyl)pyrazolo[1,5-a]pyrimidin-7-yl]phenyl}amino)ethylcarbamate], the IC50 fell in the range of 1 to 10 µM.

As to `O=C(Cc1ccc(Cl)cc1)Nc1cccc(-c2ccnc3c(C(=O)c4cccs4)cnn23)c1` [Example 108, 2-(4-chlorophenyl)-N-{3-[3-(thien-2-ylcarbonyl)pyrazolo[1,5-a]pyrimidin-7-yl]phenyl}acetamide], the IC50 is less than 1 µM.

With `CC(CC(=O)Nc1cccc(-c2ccnc3c(C(=O)c4cccs4)cnn23)c1)CC(C)(C)C` (stereo not shown) [Example 140, 3,5,5-trimethyl-N-{3-[3-(thien-2-ylcarbonyl)pyrazolo[1,5-a]pyrimidin-7-yl]phenyl}hexanamide], the IC50 is less than 1 µM.
